One assay concerns human lung cancer A549. Put plainly: MTT antiproliferative assay, A549. Type of assay: cell-based. As to conditions: 48 h, mean ± SD, three independent experiments. On the procedure:
(§1) These cell lines were cultured in Dulbecco's Modified Eagle Medium containing 10% (v/v) fetal bovine serum (FBS, Wisent) and 1% (v/v) Penicillin-Streptomycin Solution mixture (Beyotime, Shanghai, China) at 37 °C under 5% CO2. An MTT assay evaluated the cytotoxicity of lupeol derivatives toward the A549, MCF-7, HepG2, and LO2 cell lines. The cells were inoculated into 96-well plates (3 × 10^3 cells/well) and cultured for 24 h at 37 °C in 5% CO2. After that, a gradient concentration of the test drug was added to continue the incubation for 48 h. Subsequently, the MTT solution continued to incubate with the cells for 4 h. Afterward, the upper waste layer was discarded, and DMSO was added ([…], Tianjin, China). After the formazan completely dissolved, the absorbance of each well at 490 nm was measured with a microplate reader. The mean values were derived from three independent experiments.
A general note: Formazan colour is commonly taken as a measure of viable cells.

Assay [1] deals with human breast cancer MCF-7. Put plainly: MTT antiproliferative assay, MCF-7. Type of assay: cell-based. As to conditions: mean ± SD, three independent experiments. On the procedure: as §1
Assay [2] concerns human hepatocarcinoma HepG2. Put plainly: MTT antiproliferative assay, HepG2. Type of assay: cell-based. Particulars: for IC50: MTT, 48 h, mean ± SD, three independent experiments; for SI (selectivity index): IC50 values on L02 cells/HepG2 cells. On the procedure: as §1
In another assay the test system is human hepatic LO2 cells. Particulars: read-out: IC50 LO2; MTT, 48 h, mean ± SD, three independent experiments. On the procedure:
as §1

Take `N.N.[Cl][Pt][Cl]` [Cisplatin, cisplatin, reference compound]: the IC50 (usually the concentration that gives 50% inhibition) was determined as 4.96 ± 0.48 µM with human lung cancer A549, 5.79 ± 0.49 µM in assay [1] (48 h) and 4.65 ± 0.54 µM in assay [2].

Regarding `C=C(C)C1CCC2(C)CCC3(C)C(CCC4C5(C)CCC(OC(=O)CN6C(=O)SC(=Cc7ccc(F)cc7)C6=O)C(C)(C)C5CCC43C)C12` (stereo not shown) [Compound 6a, Lupeol-3-[(1-Ethyl)-2]-5-(4-Fluorobenzylidene)-2,4-Thiazolidinedione], the IC50 with human lung cancer A549 is 17.3 ± 1.58 µM; in assay [1] (48 h) it was 24 ± 1.87 µM; in assay [2], 22.7 ± 1.59 µM; in the assay on human hepatic LO2 cells, 92.6 ± 1.03 µM. Moreover, in assay [2], the “SI (selectivity index)” value came to 4.07.

In the case of `C=C(C)C1CCC2(C)CCC3(C)C(CCC4C5(C)CCC(OC(=O)CN6C(=O)SC(=Cc7ccc(Cl)cc7)C6=O)C(C)(C)C5CCC43C)C12` (stereo not shown) [Compound 6b, Lupeol-3-[(1-Ethyl)-2]-5-(4-Chlorobenzylidene)-2,4-Thiazolidinedione], the IC50 in the assay with human lung cancer A549 came out at 14.2 ± 1.72 µM; in assay [1] (48 h), 13.8 ± 0.75 µM; in assay [2], 16.6 ± 1.38 µM; with human hepatic LO2 cells, 70.5 ± 1.51 µM. For the same compound, the “SI (selectivity index)” value in assay [2] worked out at 4.25.

Turning to `C=C(C)C1CCC2(C)CCC3(C)C(CCC4C5(C)CCC(OC(=O)CN6C(=O)SC(=Cc7ccc(C)cc7)C6=O)C(C)(C)C5CCC43C)C12` (stereo not shown) [Compound 6c, Lupeol-3-[(1-Ethyl)-2]-5-(4-Methylbenzylidene)-2,4-Thiazolidinedione], the IC50 with human lung cancer A549 was 10.4 ± 0.82 µM; in assay [1] (48 h) it was 22.1 ± 1.42 µM; in assay [2], 18.2 ± 1.27 µM; in the assay with human hepatic LO2 cells, 76.4 ± 1.22 µM. Besides, the “SI (selectivity index)” value in assay [2] is 4.2.

On to `C=C(C)C1CCC2(C)CCC3(C)C(CCC4C5(C)CCC(OC(=O)CN6C(=O)SC(=Cc7ccc(C(C)(C)C)cc7)C6=O)C(C)(C)C5CCC43C)C12` (stereo not shown) [Compound 6d, Lupeol-3-[(1-Ethyl)-2]-5-(4-Tert-Butylphenyl)-2,4-Thiazolidinedione], for which the IC50 stood at 14.2 ± 1.43 µM with human lung cancer A549, 15.4 ± 1.22 µM in assay [1] (48 h), 10.9 ± 0.78 µM in assay [2] and 39.2 ± 1.07 µM in the assay with human hepatic LO2 cells. Besides, in assay [2], the “SI (selectivity index)” value came out at 3.61.

In the case of `C=C(C)C1CCC2(C)CCC3(C)C(CCC4C5(C)CCC(OC(=O)CN6C(=O)SC(=Cc7ccccc7OC)C6=O)C(C)(C)C5CCC43C)C12` (stereo not shown) [Compound 6e, Lupeol-3-[(1-Ethyl)-2]-5-(2-Methoxybenzylidene)-2,4-Thiazolidinedione], the IC50 with human lung cancer A549 was determined as 9.43 ± 0.74 µM; in assay [1] (48 h) it was 12.5 ± 0.74 µM; in assay [2], 15.5 ± 0.86 µM; in the assay on human hepatic LO2 cells, 70.8 ± 0.93 µM. Besides, the “SI (selectivity index)” value in assay [2] was 4.57.

Regarding `C=C(C)C1CCC2(C)CCC3(C)C(CCC4C5(C)CCC(OC(=O)CN6C(=O)SC(=Cc7ccc(OC)c(OC)c7OC)C6=O)C(C)(C)C5CCC43C)C12` (stereo not shown) [Compound 6f, Lupeol-3-[(1-Ethyl)-2]-5-(2,3,4-Trimethoxybenzylidene)-2,4-Thiazolidinedione], the 50% inhibitory concentration (IC50) with human lung cancer A549 is 10.3 ± 0.86 µM; in assay [1] (48 h), 16.1 ± 0.89 µM; in assay [2], 19.2 ± 1.57 µM; in the assay on human hepatic LO2 cells it was 85.3 ± 1.12 µM. Moreover, the “SI (selectivity index)” value in assay [2] worked out at 4.44.

`C=C(C)C1CCC2(C)CCC3(C)C(CCC4C5(C)CCC(OC(=O)CN6C(=O)SC(=Cc7ccco7)C6=O)C(C)(C)C5CCC43C)C12` (stereo not shown) [Compound 6g, Lupeol-3-[(1-Ethyl)-2]-5-(2-Furanylmethylene)-2,4-Thiazolidinedione]: the half-maximal inhibitory concentration (IC50) with human lung cancer A549 was 14.9 ± 1.21 µM; in assay [1] (48 h), 12.8 ± 0.22 µM; in assay [2], 15.3 ± 1.32 µM; in the assay with human hepatic LO2 cells, 60.6 ± 1.84 µM. The “SI (selectivity index)” value in assay [2] amounted to 3.95.

With `C=C(C)[C@@H]1CC[C@]2(C)CC[C@]3(C)[C@H](CC[C@@H]4[C@@]5(C)CC[C@H](O)C(C)(C)[C@@H]5CC[C@]43C)[C@@H]12` [Lupeol], the 50% inhibitory concentration (IC50) in assay [1] (Homo sapiens, MCF7, 48 h) turned out to be 62 ± 1.79 µM; in assay [2] (Homo sapiens, HepG2), 43.6 ± 1.37 µM.

These data come from PMC11510666, “Thiazolidinedione-Conjugated Lupeol Derivatives as Potent Anticancer Agents Through a Mitochondria-Mediated Apoptotic Pathway” (Molecules, 2024).
